≈ marks a conversion by molar mass, not a printed value. Calls of active or inactive are those of the source. The calls are words filed in the database; no cut-off is given here.

The record followed here is ChEMBL document CHEMBL1146553, “Antiparasitic alkaloids from Psychotria klugii” (J Nat Prod, 2003).

Series [1] concerns Plasmodium falciparum. The experiment in a line: Antimalarial activity against chloroquine-sensitive Plasmodium falciparum D6 by LDH reporter assay. Type of series: functional, organism-based.
Series [2] is described as follows: in vitro. The conditions noted are these: monkey, Vero cells.
Description: Selectivity index, ratio of IC50 for african green monkey (Cercopithecus aethiops) Vero cells to IC50 for chloroquine-resistant Plasmodium falciparum W2
A further series relates to Leishmania donovani. The experiment in a line: Antileishmanial activity against Leishmania donovani promastigotes after 72 hrs. Type of series: functional, organism-based.
Series [3] is described as follows: Specific index, ratio of IC50 for human HL60 cells to MIC for LFA1:CD11a/CD18/ICAM1- mediated aggregation in PMA-induced human HL60 cells. Type of series: functional, HL-60.
Series [4] concerns Vero. Nature of the series: Cytotoxicity against african green monkey Vero cells. Type of series: cell-based. The following applies: chlorocebus sabaeus.
Series [5] can be described thus: in vitro. The conditions noted are these: monkey, Vero cells. The source holds these as a separate data set.
Description: Selectivity index, ratio of IC50 for african green monkey (Cercopithecus aethiops) Vero cells to IC50 for chloroquine-sensitive Plasmodium falciparum D6
The subject of series [6] is Plasmodium falciparum. The experiment in a line: Antimalarial activity against chloroquine-resistant Plasmodium falciparum W2 by LDH reporter assay. Type of series: functional, organism-based. A general note: Reporter assays use an easily measured gene product as a stand-in for the process of interest.
The target of series [7] is T1, Integrin alpha-L (Homo sapiens) (UniProt P20701).
T1 sequence (whole entry): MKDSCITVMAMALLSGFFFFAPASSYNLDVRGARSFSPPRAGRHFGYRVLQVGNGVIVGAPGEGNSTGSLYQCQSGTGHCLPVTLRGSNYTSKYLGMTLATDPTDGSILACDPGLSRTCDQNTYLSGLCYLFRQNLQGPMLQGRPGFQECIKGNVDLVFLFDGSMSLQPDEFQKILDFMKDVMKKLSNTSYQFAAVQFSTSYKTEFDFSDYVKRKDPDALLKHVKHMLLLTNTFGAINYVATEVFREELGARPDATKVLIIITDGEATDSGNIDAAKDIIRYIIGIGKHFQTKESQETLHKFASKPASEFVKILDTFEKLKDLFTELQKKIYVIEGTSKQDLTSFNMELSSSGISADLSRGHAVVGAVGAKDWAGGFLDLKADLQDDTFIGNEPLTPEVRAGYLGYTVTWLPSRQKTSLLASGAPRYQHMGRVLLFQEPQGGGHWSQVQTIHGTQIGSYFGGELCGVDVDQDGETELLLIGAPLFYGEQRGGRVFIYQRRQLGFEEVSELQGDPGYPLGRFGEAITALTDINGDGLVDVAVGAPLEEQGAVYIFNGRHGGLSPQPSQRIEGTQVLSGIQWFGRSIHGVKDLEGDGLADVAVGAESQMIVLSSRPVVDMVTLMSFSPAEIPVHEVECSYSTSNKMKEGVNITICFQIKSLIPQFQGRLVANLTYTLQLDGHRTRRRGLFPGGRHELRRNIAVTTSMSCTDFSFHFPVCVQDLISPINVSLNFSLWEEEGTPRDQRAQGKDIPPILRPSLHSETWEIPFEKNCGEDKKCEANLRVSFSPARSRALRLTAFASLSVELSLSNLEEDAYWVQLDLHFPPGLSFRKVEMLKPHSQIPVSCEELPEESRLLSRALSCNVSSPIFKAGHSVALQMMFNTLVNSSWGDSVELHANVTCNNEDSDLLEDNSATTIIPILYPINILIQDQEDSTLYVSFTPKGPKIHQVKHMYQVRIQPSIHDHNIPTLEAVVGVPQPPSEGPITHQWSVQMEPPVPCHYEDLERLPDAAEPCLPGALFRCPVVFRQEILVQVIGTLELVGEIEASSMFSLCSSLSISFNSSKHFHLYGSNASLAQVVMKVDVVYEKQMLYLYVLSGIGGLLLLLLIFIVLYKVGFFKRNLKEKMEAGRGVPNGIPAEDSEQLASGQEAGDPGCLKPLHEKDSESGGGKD
The experiment in a line: Inhibition of LFA1:CD11a/CD18/ICAM1- mediated aggregation in PMA-induced human HL60 cells. The conditions noted are these: HL-60. Type of series: cell-based.

In the next series the test system is HL-60. The experiment in a line: Cytotoxicity against human HL60 cells by XTT assay. Type of series: functional, cell-based. (In general: Tetrazolium dyes change colour on reduction, which living cells bring about.)
The subject of another series is BT-549. The experiment in a line: Cytotoxicity against human BT549 cells. Type of series: functional, cell-based.
Another series concerns KB. Nature of the series: Cytotoxicity against human KB cells. Type of series: functional, cell-based.
The test system of series [8] is Vero. Nature of the series: Cytotoxicity against african green monkey Vero cells at 10 ug/ml. Type of series: cell-based. The conditions noted are these: chlorocebus sabaeus.
The next series concerns SK-OV-3. Nature of the series: Cytotoxicity against human SKOV3 cells. Type of series: functional, cell-based.
In the next series the test system is SK-MEL. The experiment in a line: Cytotoxicity against human SK-MEL cells. Type of series: functional, cell-based.
Series [9] has as its target T1, Integrin alpha-L (Homo sapiens). The experiment in a line: Inhibition of LFA1:CD11a/CD18/ICAM1-mediated human HL60 cell adhesion to human HeLa cells expressing ICAM1 by fluorescence analysis. Type of series: cell-based.
Series [10] in a line: Specific index, ratio of IC50 for human HL60 cells to MIC for LFA1:CD11a/CD18/ICAM1-mediated human HL60 cell adhesion to human HeLa cells. Type of series: functional.

As to `CC[C@H]1CN2CCc3cc(OC)c(OC)cc3[C@@H]2C[C@@H]1C[C@H]1NCCc2cc(OC)c(OC)cc21` [EMETINE], the IC50 (commonly the concentration at which inhibition is half-maximal) is 0.0727 µg/mL (≈ 0.151 µM) with Plasmodium falciparum [1]; 0.03 µg/mL (≈ 0.0624 µM) with Leishmania donovani; 0.42 µg/mL (≈ 0.874 µM) with Vero [4]; 0.078 µg/mL (≈ 0.162 µM) in the series with Plasmodium falciparum [6]; 0.38 µg/mL (≈ 0.791 µM) in the series on HL-60. The selectivity ratio was found to be 5 in “in vitro [2]” and 6 in the series “in vitro [5]”. Further, the 90% effect level in the series with Leishmania donovani (IC90) was put at 0.13 µg/mL (≈ 0.27 µM). Also, the Ratio in series [3] was 1.53. The same compound displayed an MIC in [7] of 0.26 µg/mL (≈ 0.541 µM).

As to `C[C@@H]1[C@H](O)[C@@H](C)/C=C/C=C/C=C/C=C/C=C/C=C/C=C/[C@H](O[C@@H]2O[C@H](C)[C@@H](O)[C@H](N)[C@@H]2O)C[C@@H]2O[C@](O)(C[C@@H](O)C[C@@H](O)[C@H](O)CC[C@@H](O)C[C@@H](O)CC(=O)O[C@H]1C)C[C@H](O)[C@H]2C(=O)O` [AMPHOTERICIN B], in the series on Leishmania donovani, the IC50 was 0.17 µg/mL (≈ 0.184 µM) and the IC90 (usually the point of the concentration-response curve where the effect stands at 90%) came to 0.28 µg/mL (≈ 0.303 µM).

For `CC[C@H]1CN2CCc3cc(OC)c(OC)cc3[C@@H]2C[C@@H]1C[C@@H]1NCCc2cc(O)c(OC)cc21` [ISOCEPHAELINE], the IC50 is 0.187 µg/mL (≈ 0.4 µM) in the series on Plasmodium falciparum [1]; over 10 µg/mL in the series with BT-549; 0.45 µg/mL (≈ 0.964 µM) in the series on Leishmania donovani; over 10 µg/mL in the series with KB; 0.29 µg/mL (≈ 0.621 µM) in the series on Plasmodium falciparum [6]; over 10 µg/mL in the series on SK-OV-3. In the series on SK-MEL, this compound registered an IC50 of over 10 µg/mL. Moreover, the values for the selectivity ratio in the series “in vitro [2]” and in “in vitro [5]” were over 35 and over 54, respectively. The compound also had an IC90 in the series with Leishmania donovani of 0.98 µg/mL (≈ 2.1 µM). The Activity result in the series on Vero [8] is on record as “Non-toxic”.

Turning to `CCN(CC)CCCC(C)Nc1ccnc2cc(Cl)ccc12` (centres undefined) [CHLOROQUINE], the Activity entry in the series on Vero [8] is recorded as “Non-toxic”.

Regarding `COc1cccc2c1C(=O)c1c(O)c3c(c(O)c1C2=O)C[C@@](O)(C(=O)CO)C[C@@H]3O[C@H]1C[C@H](N)[C@H](O)[C@H](C)O1` [DOXORUBICIN], the IC50 was found to be 1 µg/mL (≈ 1.84 µM) in the series with BT-549, 1.7 µg/mL (≈ 3.13 µM) with KB, 1.53 µg/mL (≈ 2.81 µM) in the series on SK-OV-3 and 1.57 µg/mL (≈ 2.89 µM) with SK-MEL.

For `CC[C@H]1CN2CCc3cc(OC)c(OC)cc3[C@@H]2C[C@@H]1C[C@@H]1NCCc2cc(O)c(O)cc21`, the results for the IC50 in the series with Plasmodium falciparum [1], in the series with Leishmania donovani and in the series on Plasmodium falciparum [6] were 1.5 µg/mL (≈ 3.31 µM), 7.5 µg/mL (≈ 16.6 µM) and 3.07 µg/mL (≈ 6.78 µM), respectively. Further, the selectivity ratio is over 3 in the series “in vitro [2]” and over 7 in “in vitro [5]”. Besides, the IC90 with Leishmania donovani is 19 µg/mL (≈ 42 µM). Further, the Activity entry in the series with Vero [8] is recorded as “Non-toxic”.

Turning to `CC[C@H]1CN2CCc3cc(OC)c(OC)cc3[C@@H]2C[C@@H]1C[C@H]1NCCc2cc(O)c(OC)cc21` [CEPHAELINE], the IC50 in the series with Plasmodium falciparum [1] was 0.038 µg/mL (≈ 0.0814 µM); with BT-549, 0.86 µg/mL (≈ 1.84 µM); in the series with Leishmania donovani, 0.03 µg/mL (≈ 0.0643 µM); with KB it was 0.33 µg/mL (≈ 0.707 µM); in the series on Vero [4] it was 5.3 µg/mL (≈ 11.4 µM); in the series on Plasmodium falciparum [6], 0.0277 µg/mL (≈ 0.0594 µM). Moreover, the IC50 was determined as 14.9 µg/mL (≈ 31.9 µM) in the series with HL-60, 0.18 µg/mL (≈ 0.386 µM) with SK-OV-3 and 0.25 µg/mL (≈ 0.536 µM) in the series with SK-MEL. In addition, the results for the selectivity ratio in the series “in vitro [2]” and in “in vitro [5]” were 193 and 132, respectively. Moreover, in the series on Leishmania donovani, the IC90 was 1.5 µg/mL (≈ 3.21 µM). Besides, the Ratio in [3] turned out to be 2.17. In series [7], this compound had an MIC of 6.9 µg/mL (≈ 14.8 µM).

Regarding `N=C(N)c1ccc(OCCCCCOc2ccc(C(=N)N)cc2)cc1` [PENTAMIDINE], the IC90 with Leishmania donovani stood at 2.4 µg/mL (≈ 7.05 µM).

As for `C[C@@H]1CC[C@H]2[C@@H](C)C(=O)O[C@@H]3O[C@@]4(C)CC[C@@H]1[C@]32OO4` [ARTEMISININ], the half-inhibitory concentration (IC50) with Plasmodium falciparum [1] came out at 0.0143 µg/mL (≈ 0.0506 µM); in the series on Plasmodium falciparum [6] it was 0.0085 µg/mL (≈ 0.0301 µM). Besides, the values for the selectivity ratio in “in vitro [2]” and in the series “in vitro [5]” were over 1180 and over 699, respectively. Also, the Activity entry in the series with Vero [8] was “Non-toxic”.

Regarding `CC[C@H]1CN2CCc3cc(O)c(OC)cc3[C@@H]2C[C@@H]1C[C@@]1(O)NCCc2cc(O)c(OC)cc21` [KLUGINE], the IC50 in the series with Plasmodium falciparum [1] is 0.0377 µg/mL (≈ 0.0805 µM); with BT-549, over 10 µg/mL; with Leishmania donovani, 0.4 µg/mL (≈ 0.854 µM); with KB it was over 10 µg/mL; with Plasmodium falciparum [6], 0.0463 µg/mL (≈ 0.0988 µM); in the series with HL-60, 25 µg/mL (≈ 53.4 µM). The IC50 in the series on SK-OV-3 and with SK-MEL was over 10 µg/mL in each case. The selectivity ratio in “in vitro [2]” is over 217; in “in vitro [5]” it was over 265. In the series with Leishmania donovani, this compound came in with an IC90 of 2.5 µg/mL (≈ 5.34 µM). In series [9], the outcome was inactive. Moreover, the Ratio in [3] was found to be 1.2. The Activity entry in the series on Vero [8] is “Non-toxic”. This compound displayed an MIC in [7] of 20.8 µg/mL (≈ 44.4 µM).

As for `C=C1[C@@H](C)[C@H]2[C@H](Cc3ccccc3)NC(=O)[C@]23OC(=O)/C=C/[C@H](O)CCC[C@@H](C)C/C=C/[C@H]3[C@@H]1O` [CYTOCHALASIN B], the Ratio in series [10] is given as over 5.5; in series [3], 13. In series [7], this compound returned an MIC of 2.5 µg/mL (≈ 5.21 µM). This compound displayed an IC50 with HL-60 of over 30 µg/mL.
